Laboratory results as given in publication PMC6572135, “N-Methyl-D-glucamine–Calix[4]resorcinarene Conjugates: Self-Assembly and Biological Properties” (Molecules, 2019).

Assay: Conductometry, critical aggregation concentration
Type: physicochemical
Details: water solution, 25 °C; GCR-2 in the presence of two-fold excess of MG
Procedure: Firstly, self-assembly of GCR-1 was studied by conductometric measurements (Figure 1). Specific conductivity increases proportionately with the GCR-1 concentration in water solution. Inflection on the plot appears at 14 mM, and after this critical aggregation concentration (CAC) the increment rate of conductivity reduces because the aggregates transfer charge less efficiently than monomers. Remarkably, modification of calix[4]resorcinarene by N-methyl-D-glucamine fragment facilitates self-aggregation of macrocycle in water medium (Figure 1). The CAC value for calix[4]resorcinarene (CR-1) without meglumine units at the upper rim is 20 mM that is greater than that for meglumine-modified calix[4]resorcinarene. The driving forces of intermolecular aggregates’ formation are probably hydrogen bonds between hydroxyl groups on the GCR-1 upper rim, so the presence of additional OH-groups in the meglumine group reinforces this noncovalent interaction. A stable pH value, which can be observed over a wide range of concentrations, verifies that the N-methyl-D-glucamine fragment is an effective buffer component (Figure S4). […] As a result, the aggregation of this calix[4]resorcinarene was studied in water solutions at the presence of two-fold excess of N-methyl-D-glucamine (MG). […] Specific conductivity values were measured at least three times for each concentration. […]

Sulfonatoethylcalix[4]resorcinarene [CR-1, reference compound]
CAC, conductometry: 20 mM
